# Test results published in publication PMC10066365, “Nemacol is a small molecule inhibitor of C. elegans vesicular acetylcholine transporter with anthelmintic potential” (Nature Communications, 2023).
# Where “and” joins values, the source holds several entries; their conditions need not be identical. Equal entries are not always repeated. Where two headings read alike, the source gives them in different places.
# How the values were obtained:
# [1] = test system: C. elegans; test: Suppression of trichlorfon (AChE inhibitor) paralysis, double dose-response, scored after 80 min; type: in vivo, Caenorhabditis elegans; conditions: wild-type, bio rep 1-3
# [2] = target: T1, rat VAChT (Rattus norvegicus, UniProt Q62666); test: [3H]Vesamicol competitive radioligand binding, PC12 cells expressing ratVAChT; conditions: for specific binding in % of total binding (corrected by nonspecific binding NB), mean: rVAChT-PC12, 21°C, 1% DMSO
# T1 construct: expressed in transfected cells; host or cells: rat PC12 (PC12 A123.7) cells, stably transfected; shared by Dr. Ali Roghani (Texas Tech University)
# T1 sequence (Q62666 1-530): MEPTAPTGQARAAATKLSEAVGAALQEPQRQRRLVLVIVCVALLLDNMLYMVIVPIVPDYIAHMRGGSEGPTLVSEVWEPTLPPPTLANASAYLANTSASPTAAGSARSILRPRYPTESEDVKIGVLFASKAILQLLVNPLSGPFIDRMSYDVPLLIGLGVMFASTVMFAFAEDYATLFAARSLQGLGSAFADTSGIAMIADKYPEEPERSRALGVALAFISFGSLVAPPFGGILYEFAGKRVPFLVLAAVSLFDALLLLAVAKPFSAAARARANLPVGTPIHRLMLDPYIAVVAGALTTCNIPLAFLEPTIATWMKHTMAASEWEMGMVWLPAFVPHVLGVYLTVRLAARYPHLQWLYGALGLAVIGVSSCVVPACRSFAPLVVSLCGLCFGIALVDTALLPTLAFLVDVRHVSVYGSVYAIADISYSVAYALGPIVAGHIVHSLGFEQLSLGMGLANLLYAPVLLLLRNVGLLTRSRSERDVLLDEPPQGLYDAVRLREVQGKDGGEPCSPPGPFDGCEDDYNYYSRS
# [3] = test system: C. elegans unc-17 mutants; conditions: 60 min
# Procedure: Significance was calculated using Fisher’s method (one-sided comparisons; see 'Methods'). […] Worms were incubated on the plates for 60 min.
# Locomotor phenotype analyses were done in 24-well plates with 1 mL of MYOB substrate (27.5 g Trizma HCl, 12 g Trizma Base, 230 g bacto tryptone, 10 g NaCl, 0.4 g cholesterol (95%)) seeded with 25 µL of OP50 Escherichia coli on each well. Each compound was added to the MYOB substrate before pouring to achieve the desired final concentrations of 30 µM or 60 µM after diffusion through the media. Synchronized young adult worms are transferred into each well using a platinum wire pick. A Leica MZ75 stereomicroscope was used to visualize the movement of worms on the solid substrate. The specific dominant locomotor phenotype (i.e. ‘Punc’, ‘paralyzed’, ‘coiler’ or ‘wild-type locomotion’) was scored after the touch on the head with a platinum wire over a ~3–5 s of observation. […] Coiled animals were not scored as paralyzed despite sometimes not responding to light touch.
# [4] = unc-17 (e245), 15 µM, adult worms, average of 3 biological repeats
# [5] = unc-17 (e245), 30 µM, adult worms, average of 3 biological repeats
# [6] = unc-17 (e245), 60 µM, adult worms, average of 3 biological repeats
# [7] = unc-17 (e245), 15 µM, single Bio Rep
# [8] = unc-17 (e245), 30 µM, single Bio Rep
# [9] = unc-17 (e245), 60 µM, single Bio Rep
# [10] = unc-17 (e327), 15 µM, single Bio Rep
smiles,measurement,setting,value
O=[N+]([O-])c1ccc(N2CCN(CC3CCCCC3)CC2)cc1 [Nemacol-1],% para (percentage of animals able to adopt a clear sinusoidal wave pattern upon touch on the nose),[1]; Nemacol-1 3.75 uM + trichlorfon 0 uM,100%
same,% para (percentage of animals able to adopt a clear sinusoidal wave pattern upon touch on the nose),[1]; Nemacol-1 3.75 uM + trichlorfon 25 uM,96.4286% and 92.8571% and 100%
same,% para (percentage of animals able to adopt a clear sinusoidal wave pattern upon touch on the nose),[1]; Nemacol-1 3.75 uM + trichlorfon 50 uM,96.4286% and 85.7143% and 75%
same,% para (percentage of animals able to adopt a clear sinusoidal wave pattern upon touch on the nose),[1]; Nemacol-1 3.75 uM + trichlorfon 100 uM,28.5714% and 32.1429% and 39.2857%
same,% para (percentage of animals able to adopt a clear sinusoidal wave pattern upon touch on the nose),[1]; Nemacol-1 3.75 uM + trichlorfon 200 uM,10.7143% and 7.143%
same,% para (percentage of animals able to adopt a clear sinusoidal wave pattern upon touch on the nose),[1]; Nemacol-1 3.75 uM + trichlorfon 400 uM,3.571% and 0%
same,% para (percentage of animals able to adopt a clear sinusoidal wave pattern upon touch on the nose),[1]; Nemacol-1 3.75 uM + trichlorfon 800 uM,0%
same,% para (percentage of animals able to adopt a clear sinusoidal wave pattern upon touch on the nose),[1]; Nemacol-1 15 uM + trichlorfon 0 uM,96.4286% and 100%
same,% para (percentage of animals able to adopt a clear sinusoidal wave pattern upon touch on the nose),[1]; Nemacol-1 15 uM + trichlorfon 25 uM,100%
same,% para (percentage of animals able to adopt a clear sinusoidal wave pattern upon touch on the nose),[1]; Nemacol-1 15 uM + trichlorfon 50 uM,92.8571% and 46.4286% and 64.2857%
same,% para (percentage of animals able to adopt a clear sinusoidal wave pattern upon touch on the nose),[1]; Nemacol-1 15 uM + trichlorfon 100 uM,82.1429% and 53.5714% and 71.4286%
same,% para (percentage of animals able to adopt a clear sinusoidal wave pattern upon touch on the nose),[1]; Nemacol-1 15 uM + trichlorfon 400 uM,14.2857% and 7.143%
same,% para (percentage of animals able to adopt a clear sinusoidal wave pattern upon touch on the nose),[1]; Nemacol-1 15 uM + trichlorfon 800 uM,0% and 3.571%
same,% para (percentage of animals able to adopt a clear sinusoidal wave pattern upon touch on the nose),[1]; Nemacol-1 30 uM + trichlorfon 0 uM,100%
same,% para (percentage of animals able to adopt a clear sinusoidal wave pattern upon touch on the nose),[1]; Nemacol-1 30 uM + trichlorfon 25 uM,100%
same,% para (percentage of animals able to adopt a clear sinusoidal wave pattern upon touch on the nose),[1]; Nemacol-1 30 uM + trichlorfon 50 uM,85.7143% and 89.2857% and 92.8571%
same,% para (percentage of animals able to adopt a clear sinusoidal wave pattern upon touch on the nose),[1]; Nemacol-1 30 uM + trichlorfon 100 uM,78.5714% and 82.1429%
same,% para (percentage of animals able to adopt a clear sinusoidal wave pattern upon touch on the nose),[1]; Nemacol-1 30 uM + trichlorfon 200 uM,53.5714% and 32.1429% and 39.2857%
same,% para (percentage of animals able to adopt a clear sinusoidal wave pattern upon touch on the nose),[1]; Nemacol-1 30 uM + trichlorfon 800 uM,3.571%
same,% para (percentage of animals able to adopt a clear sinusoidal wave pattern upon touch on the nose),[1]; Nemacol-1 60 uM + trichlorfon 0 uM,50% and 82.1429% and 71.4286%
same,% para (percentage of animals able to adopt a clear sinusoidal wave pattern upon touch on the nose),[1]; Nemacol-1 60 uM + trichlorfon 25 uM,85.7143% and 75% and 78.5714%
same,% para (percentage of animals able to adopt a clear sinusoidal wave pattern upon touch on the nose),[1]; Nemacol-1 60 uM + trichlorfon 50 uM,78.5714% and 57.1429% and 67.8571%
same,% para (percentage of animals able to adopt a clear sinusoidal wave pattern upon touch on the nose),[1]; Nemacol-1 60 uM + trichlorfon 100 uM,53.5714% and 67.8571%
same,% para (percentage of animals able to adopt a clear sinusoidal wave pattern upon touch on the nose),[1]; Nemacol-1 60 uM + trichlorfon 200 uM,35.7143% and 57.1429% and 50%
same,% para (percentage of animals able to adopt a clear sinusoidal wave pattern upon touch on the nose),[1]; Nemacol-1 60 uM + trichlorfon 800 uM,3.571% and 7.143%
same,% para (percentage of animals able to adopt a clear sinusoidal wave pattern upon touch on the nose),[1]; Nemacol-1 […] + trichlorfon 25 uM,100%
same,% para (percentage of animals able to adopt a clear sinusoidal wave pattern upon touch on the nose),[1]; Nemacol-1 […] + trichlorfon 800 uM,0%
same,"activity ratio, mammalian VAChT Ki to C. elegans in vivo EC50",[2],0.11
same,Ki,"[2]; Ki, each of two biological replicates",0.875 µM and 0.661 µM
same,"specific binding in % of total binding (corrected by nonspecific binding NB), mean","[2]; competitor 1.00E-04 M, experiment 2019-11-21, 2.20E-09 M 3H-vesamicol, 90 min",2.84%
same,"specific binding in % of total binding (corrected by nonspecific binding NB), mean","[2]; competitor 1.00E-05 M, experiment 2019-10-30, 2.92E-09 M 3H-vesamicol, 120 min",34%
same,"specific binding in % of total binding (corrected by nonspecific binding NB), mean","[2]; competitor 1.00E-05 M, experiment 2019-11-21, 2.20E-09 M 3H-vesamicol, 90 min",10%
same,"specific binding in % of total binding (corrected by nonspecific binding NB), mean","[2]; competitor 1.00E-06 M, experiment 2019-10-30, 2.92E-09 M 3H-vesamicol, 120 min",51%
same,"specific binding in % of total binding (corrected by nonspecific binding NB), mean","[2]; competitor 1.00E-06 M, experiment 2019-11-21, 2.20E-09 M 3H-vesamicol, 90 min",52%
same,"specific binding in % of total binding (corrected by nonspecific binding NB), mean","[2]; competitor 1.00E-07 M, experiment 2019-10-30, 2.92E-09 M 3H-vesamicol, 120 min",86%
same,"specific binding in % of total binding (corrected by nonspecific binding NB), mean","[2]; competitor 1.00E-07 M, experiment 2019-11-21, 2.20E-09 M 3H-vesamicol, 90 min",82%
same,"specific binding in % of total binding (corrected by nonspecific binding NB), mean","[2]; competitor 1.00E-08 M, experiment 2019-10-30, 2.92E-09 M 3H-vesamicol, 120 min",94%
same,"specific binding in % of total binding (corrected by nonspecific binding NB), mean","[2]; competitor 1.00E-08 M, experiment 2019-11-21, 2.20E-09 M 3H-vesamicol, 90 min",90%
same,"specific binding in % of total binding (corrected by nonspecific binding NB), mean","[2]; competitor 1.00E-09 M, experiment 2019-10-30, 2.92E-09 M 3H-vesamicol, 120 min",96%
same,"specific binding in % of total binding (corrected by nonspecific binding NB), mean","[2]; competitor 1.00E-09 M, experiment 2019-11-21, 2.20E-09 M 3H-vesamicol, 90 min",88%
same,"specific binding in % of total binding (corrected by nonspecific binding NB), mean","[2]; competitor 1.00E-10 M, experiment 2019-10-30, 2.92E-09 M 3H-vesamicol, 120 min",95%
same,"specific binding in % of total binding (corrected by nonspecific binding NB), mean","[2]; competitor 1.00E-10 M, experiment 2019-11-21, 2.20E-09 M 3H-vesamicol, 90 min",92%
same,"specific binding in % of total binding (corrected by nonspecific binding NB), mean","[2]; competitor 1.00E-11 M, experiment 2019-10-30, 2.92E-09 M 3H-vesamicol, 120 min",94%
same,rat VAChT Ki fold difference to vesamicol,[2]; fold less affinity than vesamicol,37 fold
same,Ki,[2]; in vitro mammalian VAChT Ki,0.77 µM
same,Ki,"[2]; ratVAChT Ki, [3H]Vesamicol displacement, mean",0.768 µM
same,Fraction Coiled,[3]; [4],0.83
same,Fraction Jerky-Unc,[3]; [4],0.17
same,Fraction No Phenotype,[3]; [4],0.00
same,Fraction Parayzed,[3]; [4],0.00
same,Fraction Coiled,[3]; [5],0.78
same,Fraction Jerky-Unc,[3]; [5],0.13
same,Fraction No Phenotype,[3]; [5],0.00
same,Fraction Parayzed,[3]; [5],0.09
same,Fraction Coiled,[3]; [6],0.80
same,Fraction Jerky-Unc,[3]; [6],0.0556
same,Fraction No Phenotype,[3]; [6],0.00
same,Fraction Parayzed,[3]; [6],0.15
same,"Fraction Coiled, Averages of 3 biological repeats","[3]; unc-17 (e245), 15 µM",0.78
same,"Fraction Jerky-Unc, Averages of 3 biological repeats","[3]; unc-17 (e245), 15 µM",0.19
same,"Fraction No Phenotype, Averages of 3 biological repeats","[3]; unc-17 (e245), 15 µM",0.00
same,"Fraction Parayzed, Averages of 3 biological repeats","[3]; unc-17 (e245), 15 µM",0.037
same,C1 (loose coil) worm count,[3]; [7],4 and 2 and 3
same,C2 (tight coil) worm count,[3]; [7],11 and 12 and 10
same,Fraction Coiled,[3]; [7],0.72 and 0.83 and 0.78
same,Fraction Jerky-Unc,[3]; [7],0.1667 and 0.2222
same,Fraction No Phenotype,[3]; [7],0.00
same,J (jerky-unc) worm count,[3]; [7],3 and 4
same,NP (no phene) worm count,[3]; [7],0
same,"Fraction Coiled, Averages of 3 biological repeats","[3]; unc-17 (e245), 30 µM",0.87
same,"Fraction Jerky-Unc, Averages of 3 biological repeats","[3]; unc-17 (e245), 30 µM",0.0741
same,"Fraction No Phenotype, Averages of 3 biological repeats","[3]; unc-17 (e245), 30 µM",0.00
same,"Fraction Parayzed, Averages of 3 biological repeats","[3]; unc-17 (e245), 30 µM",0.0556
same,C1 (loose coil) worm count,[3]; [8],2 and 1
same,C2 (tight coil) worm count,[3]; [8],14 and 15 and 13
same,Fraction Coiled,[3]; [8],0.83 and 0.89
same,Fraction No Phenotype,[3]; [8],0.00
same,NP (no phene) worm count,[3]; [8],0
same,"Fraction Coiled, Averages of 3 biological repeats","[3]; unc-17 (e245), 60 µM",0.76
same,"Fraction Jerky-Unc, Averages of 3 biological repeats","[3]; unc-17 (e245), 60 µM",0.037
same,"Fraction No Phenotype, Averages of 3 biological repeats","[3]; unc-17 (e245), 60 µM",0.00
same,"Fraction Parayzed, Averages of 3 biological repeats","[3]; unc-17 (e245), 60 µM",0.20
same,C1 (loose coil) worm count,[3]; [9],4 and 2
same,C2 (tight coil) worm count,[3]; [9],12 and 8 and 11
same,Fraction Coiled,[3]; [9],0.83 and 0.89 and 0.56
same,Fraction No Phenotype,[3]; [9],0.00
same,NP (no phene) worm count,[3]; [9],0
same,"Fraction Coiled, Averages of 3 biological repeats","[3]; unc-17 (e327), 15 µM",0.77
same,"Fraction Jerky-Unc, Averages of 3 biological repeats","[3]; unc-17 (e327), 15 µM",0.15
same,"Fraction No Phenotype, Averages of 3 biological repeats","[3]; unc-17 (e327), 15 µM",0.00
same,"Fraction Parayzed, Averages of 3 biological repeats","[3]; unc-17 (e327), 15 µM",0.08
same,C1 (loose coil) worm count,[3]; [10],3 and 4
same,C2 (tight coil) worm count,[3]; [10],10 and 12 and 8
